Reference: article PMC7357169, “Blinded, Multicenter Evaluation of Drug-induced Changes in Contractility Using Human-induced Pluripotent Stem Cell-derived Cardiomyocytes” (Toxicological Sciences, 2020)
Read-outs that look alike come from different tables or passages of the source.

Tests used:
[1] = cited from earlier work; for FTPC: free therapeutic plasma concentration, Refs of Supplementary Table 1; for FPTC (free plasma therapeutic concentration): ref Supplementary Table 1
[2] = tested on: cardiac contractility; conditions: cited from earlier work; for Expected effect on contractility in isolated cardiomyocytes/heart muscles / EC50 / IC50: Refs of Supplementary Table 1, isolated cardiomyocytes/heart muscles; for EC50: read-out: Expected effect on contractility in isolated cardiomyocytes/heart muscles, EC50; for IC50: negative inotropy, read-out: Expected effect on contractility in isolated cardiomyocytes/heart muscles, IC50
[3] = tested on: heart; design: method as in Refs column of Supplementary Table 1; conditions: Refs of Supplementary Table 1; cited from earlier work
[4] = tested on: hiPSC-CM EHTs; assay: EHT contractility with beat rate slowed by 300 nM ivabradine and electrical pacing 0.5-2.0 Hz; format: cell-based, human; conditions: EHTs with 300 nM ivabradine, paced; only at 0.5 and 0.7 Hz, sometimes at 1 Hz, never at 1.5 or 2 Hz; high concentration bolus
Procedure: We extended these studies to the 3D EHT platform, this time slowing spontaneous beating to < 0.5 Hz with 300 nM ivabradine, a pharmacological blocker of the “funny” If current ([Bois et al., 1996]). […] Whereas force-frequency relationships was negative above 1.5 Hz, it was positive between 0.5 and 1.5 Hz, evidenced by a 147% increase in force generation concurrent with significant shortening of CT and RT (Supplementary Figure 6). We therefore re-evaluated 6 of the PIs in the presence of 300 nM ivabradine with electrical pacing at 0.5, 0.7, 1.0, 1.5, and 2.0 Hz. These also included epinephrine, levosimendan, and pimobendan, which had been incorrectly predicted by EHT:R-PAT and/or EHT:ERC platform-cell combinations. […] Thus, in both 2D and 3D configurations, lower beating frequencies led to increased predictivity for PIs.
Figure 5. Slowed beat rate increases the predictivity of positive inotropes (PIs) in 3D engineered heart tissues (EHTs). Contraction analysis was carried out using EHTs with 6 of the PIs from the drug test set: epinephrine (Epi), forskolin (For), levosimendan (Lev), pimobendan (Pim), dobutamine (Dob), and milrinone (Mil) which had been predicted with variable accuracy (Figure 4A, web tool). […] Scatter plots show percentage changes relative to baseline at respective frequency. Averaged peaks for force are shown for baseline (BL, black peaks) versus after treatment in EHTs paced at 0.5 Hz (blue peaks) or 2.0 Hz (red peaks). Dunnett’s stats versus baseline at respective frequency: *p < .05; **p < .01; ***p < .001; ****p < .0001.
Supplementary Figure 6. Positive force frequency relationship in EHTs paced between 0.5 and 1.5 Hz. Spontaneous beat rate of EHTs was reduced by 3 hour pre-treatment with 300 nM ivabradine, an If current inhibitor. […] CA increased from 0.5 to 1.5 Hz but plateaued and declined at higher frequencies. These changes were reflected in the CT and RT data. Dunnett's stats vs vehicle control: *, P<0.05; **, P<0.01; ***, P<0.001; ****, P<0.0001.

[5] = tested on: hiPSC-CMs; assay: Training set contractility in hiPSC-CMs on TTM, CellOPTIQ and EHT platforms; format: cell-based, human; conditions: for inotropy (CA) response: trend or significant response, Supplementary Figure 3
Procedure: The training set of 8 drugs was used to test and refine protocols. […] For each parameter, the percentage change in drug-treated samples relative to their respective vehicle control was calculated using the formula ([drug/drug baseline]/[vehicle/vehicle baseline])*100–100. […] These studies allowed unification of SOPs, although physical and technical constraints between the platforms meant that some unavoidable differences remained (Supplementary Table 2).
Supplementary Figure 3: Training sets to unify drug testing procedures. […] The percentage change in drug treated samples is relative to their respective vehicle control. Unpaired T-test. * p<0.05; ** p<0.01; *** p<0.001; **** p<0.0001.

[6] = heart muscle, at 500 µM, ref (Kirby et al. 1992), (Baudet et al. 1993)

Row | SMILES | FTPC [1] | FPTC (free plasma therapeutic concentration) [1] | Expected effect on contractility in isolated cardiomyocytes/heart muscles [2] | Expected cardiac effects in vivo [3] | further results
1 | CC(=O)Oc1ccccc1C(=O)O [Acetylsalicylic acid] | 0.3 to 2 µM | 0.3 to 2 µM | None | None | 
2 | CC(C)NCC(O)COc1ccc(CC(N)=O)cc1 (stereo not drawn) [Atenolol] |  |  | None (in absence of agonist) until 3000 µM (in contrast to e.g. propranolol) | NI, NC, ND | 
3 | COC(=O)C1=C(C)NC(C)=C([N+](=O)[O-])C1c1ccccc1C(F)(F)F (stereo not drawn) [Bay K 8644] |  |  | PI, NL | PI (indirect NC because of RR increase) | 
4 | C[C@H](CS)C(=O)N1CCC[C@H]1C(=O)O [Captopril] | 1 to 2 µM | 1 to 2 µM | None | None | 
5 | CN(C)CCCC1(c2ccc(F)cc2)OCc2cc(C#N)ccc21 (stereo not drawn) [Citalopram] | 0.05 µM | 0.05 µM | NI at 30 µM | None (at therapeutic doses), higher risk of TdP | NI ([2]; at 30 µM, in hEHT, ref (Witchel et al. 2002), (Mannhardt et al. 2017), (Rao 2007)): -57%; NI ([2]; at 30 µM, in human atria, ref (Witchel et al. 2002), (Mannhardt et al. 2017), (Rao 2007)): -38%
6 | Clc1cccc(Cl)c1N=C1NCCN1 [Clonidine] | 0.002 to 0.004 µM | 0.002 to 0.004 µM | None | NI, NC | 
7 | COc1ccc(C(=O)N2CCCc3cc(C4=NNC(=O)SC4C)ccc32)cc1OC (stereo not drawn) [EMD 57033] | 16 µM |  | PI, NL |  | EC50 [2]: ~5000 nM
8 | CNC[C@H](O)c1ccc(O)c(O)c1 [Epinephrine] | 0.0002 to 0.050 µM | 0.0002 to 0.05 µM |  | PI, PC | CA response [4]: increased contraction amplitude; EC50 [2]: 100 nM
9 | O=C(NCC1CCCCN1)c1cc(OCC(F)(F)F)ccc1OCC(F)(F)F (stereo not drawn) [Flecainide] |  |  |  |  | IC50 [2]: 300 nM
10 | COc1ccc(Cl)cc1C(=O)NCCc1ccc(S(=O)(=O)NC(=O)NC2CCCCC2)cc1 [Glibenclamide] | 0.02 to 0.06 µM | 0.02 to 0.06 µM | None; PI in ischemia or presence of KATP opener; NI in adrenalectomized dogs, NE in isolated dog heart trabeculae | None or PI in ischemia | 
11 | CCC(C)n1ncn(-c2ccc(N3CCN(c4ccc(OCC5COC(Cn6cncn6)(c6ccc(Cl)cc6Cl)O5)cc4)CC3)cc2)c1=O (stereo not drawn) [Itraconazole] | 0.00086 µM | 0.00086 µM |  |  | NI ([2]; at 0.3 µM, rabbit heart, ref (Head et al. 2015), (Qu et al. 2013), (Bellmann 2007)): -30%
12 | CC(=O)Nc1ccc(O)cc1 [Paracetamol] | 50 µM | 50 µM | None | None | 
13 | Cc1ccc(N(CC2=NCCN2)c2cccc(O)c2)cc1 [Phentolamine] |  |  |  |  | free plasma concentration in patients ([1]; patients, ref Wallis et al., 2015): approximately 2.5 µM; inotropic effect at concentrations above 10 µM ([2]; above 10 µM, via modulation of fast sodium and L-type calcium channels, ref Rosen et al., 1971, Sada, 1978): negative inotropy; inotropic effect at free plasma concentrations ([2]; approximately 2.5 µM in patients, ref Wallis et al., 2015): neutral inotrope; IC50 [2]: ~20000 nM
14 | COc1ccc(-c2nc3ccc(C4=NNC(=O)CC4C)cc3[nH]2)cc1 (stereo not drawn) [Pimobendan] | 0.005 to 0.01 µM | 0.005 to 0.01 µM |  | PI, small PC | CA response [4]: increased contraction amplitude; EC50 [2]: 34000 nM
15 | CCCc1nn(C)c2c(=O)[nH]c(-c3cc(S(=O)(=O)N4CCN(C)CC4)ccc3OCC)nc12 [Sildenafil] |  |  | None | None or PI+PC (indirect) | 
16 | CNC(=O)c1cc(Oc2ccc(NC(=O)Nc3ccc(Cl)c(C(F)(F)F)c3)cc2)ccn1 [Sorafenib] | 0.03 µM | 0.03 µM | None (feline and canine CM, but cell death), NI (rat heart) | None or NI at high doses, delayed cardiotox | 
17 | CC(C)(C)NCC(O)c1cc(O)cc(O)c1 (stereo not drawn) [Terbutaline] | 1.3 µM | 1.3 µM |  |  | EC50 [2]: 3000 nM
18 | COc1ccc(CCN(C)CCCC(C#N)(c2ccc(OC)c(OC)c2)C(C)C)cc1OC (stereo not drawn) [Verapamil] |  |  |  | NI (direct) partially masked by adrenergic activation (indirect), NC or none, ND (direct) | IC50 [2]: 100 nM
19 | CN(C)C/C=C(/c1ccc(Br)cc1)c1cccnc1 [Zimelidine] |  |  |  | None (at ther. doses), QT and QRS widening at high doses | 
20 | Cn1c(=O)c2c(ncn2C)n(C)c1=O [caffeine] |  |  | Small PI and PL at 100 µM, transient large PI, NL at >10 mM |  | 
21 | C[C@H]1O[C@@H](O[C@H]2[C@@H](O)C[C@H](O[C@H]3[C@@H](O)C[C@H](O[C@H]4CC[C@@]5(C)[C@H](CC[C@@H]6[C@@H]5C[C@@H](O)[C@]5(C)[C@@H](C7=CC(=O)OC7)CC[C@]65O)C4)O[C@@H]3C)O[C@@H]2C)C[C@H](O)[C@@H]1O [digoxin] |  |  | PI+ PL (< 1 µM, slowly developing, t1/2 conc.-dependent) NI + diast. shortening (>1 µM) | PI, arrhythmias | RT response ([5]; 2D configuration): tended to increase RT; inotropy (CA) response [5]: positive inotropy
22 | CC(C)NCC(O)c1ccc(O)c(O)c1 (stereo not drawn) [isoprenaline] | 0.0095 µM |  |  | PI, PC | CT and RT response ([5]; 3D EHTs): decreased of both CT and RT; inotropy (CA) response [5]: positive inotropy; EC50 [2]: 10 nM
23 | COC(=O)C1=C(C)NC(C)=C(C(=O)OC)C1c1ccccc1[N+](=O)[O-] [nifedipine] |  |  |  | Small NI (direct) overridden by adrenergic activation, PC (indirect) | inotropy (CA) response [5]: negative inotropy; IC50 [2]: 100 nM
24 | CC(C)[C@@]1(O)[C@@H](OC(=O)c2ccc[nH]2)[C@@]2(O)[C@@]3(C)C[C@]4(O)O[C@@]5([C@H](O)[C@@H](C)CC[C@]35O)[C@@]2(O)[C@@]14C [ryanodine] |  |  | NI, NCl, species dependent biphasic |  | IC50 [2]: ~10 nM
25 | C/C=C(/C)C(=O)O[C@H]1C(C)=C2[C@H]([C@@H]1OC(=O)CCCCCCC)[C@@](C)(OC(C)=O)C[C@H](OC(=O)CCC)[C@@]1(O)[C@H]2OC(=O)[C@@]1(C)O [thapsigargin] |  |  |  |  | NI [2, 6]: ~50%; NL [2, 6]: ~20%; NI ([2]; isolated myocytes, at 0.1 µM, ref (Kirby et al. 1992), (Baudet et al. 1993)): ~90%
